# Test results taken from US11992475B1, “Application of Z-ligustilide in resisting rotaviruses” (GUANGDONG MEDICAL UNIVERSITY, priority 2023, dated 2024).
# Key:
# [1] = tested on: RV (Wa strain RV); test: Effect of Z-ligustilide in directly killing RV (MTT, MA104 cells); assay type: cell-based, Rotavirus (RV); conditions: for inhibition rate against RV (directly killing): drug mixed with virus 2 h, 48 h
# Method: The drug is mixed with 100TCID50 virus solution (the virus acts with 10 μg/mL pancreatin for 30 min) at an equal volume to act for 2 h. After the cells are washed twice with PBS, the cells are added in a 96-well culture plate of MA104 cells that grow to a single layer. The same operation as above is conducted for ribavirin and RV in the positive control group, and only an equal volume of DMEM is added to the normal cell control group and the viral control group. Incubation is conducted in 5% CO2 at 37° C. for 2 h, the mixed solution is sucked out, and the cell maintenance medium is added at an amount of 100 μL/well. Incubation is conducted in 5% CO2 at 37° C. for continuous observation. After continuous culture for 48 h, an MTT kit is used for detection. 1/10 volume of MTT solution is added in each well and incubated in an incubator. After 4 h, the supernatant is sucked out, DMSO is added, and the absorbance is measured and recorded at a wavelength of 490 nm. The experiment is repeated for 3 times. The viral inhibition rate of the drug is calculated. The formula of the viral inhibition rate is: {(Adrug group−Avirus group)/(Anormal group−Avirus group)×100%}
# [2] = tested on: RV (Wa strain RV); test: Effect of Z-ligustilide in resisting RV synthesis (MTT, MA104 cells); assay type: cell-based, Rotavirus (RV); conditions: for inhibition rate against RV (resisting biosynthesis): drug after virus, 48 h
# Method: (§1) The formula of the viral inhibition rate is: {(Adrug group−Avirus group)/(Anormal group−Avirus group)×100%}
# 100TCID50 virus solution (the virus acts with 10 μg/mL pancreatin for 30 min) is added in a 96-well culture plate of MA104-2 cells that grow to a single layer, at an amount of 100 μL/well. The cells have been washed twice with PBS. A normal cell control group is set, and added with an equal volume of DMEM culture solution. Incubation is conducted in 5% CO2 at 37° C. for 2 h, the virus solution is sucked out, and drug solution and ribavirin of different concentrations are added respectively at an amount of 100 μL/well. A viral control group is set, and only added with the cell maintenance medium at an amount of 100 μL/well. Incubation is conducted in 5% CO2 at 37° C. for continuous observation. After continuous culture for 48 h, an MTT kit is used for detection. 1/10 volume of MTT solution is added in each well and incubated in an incubator. After 4 h, the supernatant is sucked out, DMSO is added, and the absorbance is measured and recorded at a wavelength of 490 nm. The experiment is repeated for 3 times. The viral inhibition rate of the drug is calculated.
# [3] = tested on: MA104 cells; test: Toxicity of Z-ligustilide to MA104 cells (MTT assay); assay type: cell-based; conditions: 48 h
# Method: According to the common drug concentration range of Z-ligustilide, the cytotoxicity pre-experiment is performed in the range of 1-100 μM in this experiment. The MA104 cells at the logarithmic phase are observed under a microscope, the cellular morphology is uniform and full with clear edges, and when the number reaches 80%, digestion, centrifugation and re-suspension are conducted. After further dilution, 10 μl of the suspension is taken on a blood cell counting plate to count and calculate the required cell volume. Then, the cells are laid in a 96-well plate, 100 μl of cell suspension is added in each well, and the cell density is 8×10^4 cells/mL. When the cells adhere to the wall to form a single layer, the drug group is administered, and the normal group is added with an equal volume of DMEM (without serum). After incubation for 48 h, the cytotoxicity of Z-ligustilide is detected by MTT reagent. 1/10 volume of MTT solution is added in each well and incubated in an incubator. After 4 h, the solution in the wells is sucked out, 150 μL of DMSO is added in each well, and the absorbance is measured and recorded at a wavelength of 490 nm under the condition of oscillation for 30 s.
# The formula of the relative survival rate of the cells is: {(Aexperimental group−Ablank)/(Acontrol group−Ablank)×100%}
# [4] = tested on: structural protein VP6 of RV; test: Gene expression level of structural protein VP6 of RV in RV-infected MA104 cells (real time PCR); assay type: cell-based, Rotavirus (RV), Wa strain; conditions: for VP6 expression level compared with the RV group: 48 h, GAPDH internal reference
# Method: (1) To further verify whether Z-ligustilide has an effect of inhibiting RV synthesis, after Z-ligustilide inhibits RV synthesis for 48 h, drug groups of low, medium and high concentrations, the ribavirin group, the N group and the RV group are selected, the supernatant is removed, the solution is washed twice with PBS, 1 ml of Trizol reagent is added, and then the solution is collected into a 1.5 mL enzyme-free EP tube after standing for 5 min. 200 μL of chloroform is added in the tube. After vortex oscillation for 15 s, the solution is stood at room temperature for 3 min, and centrifuged (4° C., 12000 r/min, 15 min). The centrifuged sample is divided into three layers: a colorless upper layer, a white middle layer and a red lower layer.
# (2) The supernatant is carefully sucked into a new 1.5 mL enzyme-free EP tube (with a volume of about 500 μL), and an equal volume of pre-cooled isopropanol is added. The solution is shaken up and down violently, mixed well, stood at 4° C. for 10 min, and centrifuged (4° C., 12000 r/min, 10 min).
# (3) After centrifugation, white precipitate can be seen at the bottom of the EP tube. The supernatant is removed, and the precipitate is retained. 1 mL of the prepared 75% ethanol solution (prepared from anhydrous ethanol and enzyme-free water at a ratio of 3:1) is added, shaken and mixed well, and centrifuged (4° C., 12000 r/min, 5 min). The supernatant is discarded, and the solution is stood at room temperature for 15-20 min for drying.
# (4) After drying, 20 μL of DEPC water is added in the EP tube, and the tube wall is gently blown to dissolve RNA. The RNA concentration of the sample is determined by a NanoDrop micro ultraviolet spectrophotometer, and then the sample can be used directly for the experiment or stored at −80° C. for later use.
# A reaction mixture is prepared on ice according to the following components in a reaction volume of 20 μL in accordance with the instructions of Evo M-MLV RT Kit with gDNA Clean for qPCR II. The consumables used in the experiment are all Axygen enzyme-free consumables.
# Reaction conditions: 42° C. 2 min, 4° C.
# The reaction solution is prepared according to the following table, and the reverse transcription reaction is performed.
# Reaction conditions: 37° C. 15 min, 85° C. 5 sec, 4° C.
# Real time quantitative PCR is used to detect the control group and the RVWa strain-infected group by SYBR Green I fluorescent labeling. SYBR® Green Premix Pro Taq HS qPCR Kit II is used, and GAPDH is selected as the internal reference. In the experiment, dedicated real-time eight-row PCR tubes for Axygen are used for preparing a real-time fluorescence quantitative PCR amplification reaction system according to the following table, and the reaction solution is prepared on ice (the total reaction system is 10 μL).
# [5] = tested on: RV (Wa strain RV); test: Effect of Z-ligustilide in resisting RV adsorption (MTT, MA104 cells); assay type: cell-based, Rotavirus (RV); conditions: for inhibition rate against RV (resisting adsorption): drug 2 h before virus, 48 h
# Method: The drug solution is added in a 96-well culture plate of MA104 cells that grow to a single layer, and each drug solution is added in 6 wells at an amount of 100 μL/well. An equal volume of ribavirin is added to the positive control group, and only an equal volume of DMEM culture solution (without serum) is added to the normal cell control group and the viral control group. Incubation is conducted in 5% CO2 at 37° C. for 2 h. The drug solution is sucked out. Except the normal cell control group, 100TCID50 virus is added (the virus acts with 10 μg/mL pancreatin at 37° C. for 30 min) at an amount of 100 μL/well. Incubation is conducted in 5% CO2 at 37° C. for 2 h. The virus is sucked out, the cell maintenance medium is added at an amount of 200 μL/well. Incubation is conducted in 5% CO2 at 37° C. for continuous observation. After culture for 48 h, an MTT kit is used for detection. 1/10 volume of MTT solution is added in each well and incubated in an incubator. After 4 h, the supernatant is sucked out, DMSO is added, and the absorbance is measured and recorded at a wavelength of 490 nm. The experiment is repeated for 3 times.
# as §1
# [6] = 1st of six values printed for 65-90 μM
# [7] = 2nd of six values printed for 65-90 μM
# [8] = 3rd of six values printed for 65-90 μM
# [9] = 4th of six values printed for 65-90 μM
# [10] = 5th of six values printed for 65-90 μM
# [11] = 6th of six values printed for 65-90 μM
smiles,measurement,setting,value
CCC/C=C1\OC(=O)C2=C1CCC=C2 [Z-ligustilide],inhibition rate against RV (directly killing),[1]; [6],2.32%
same,inhibition rate against RV (directly killing),[1]; [7],3.25%
same,inhibition rate against RV (directly killing),[1]; [8],0.93%
same,inhibition rate against RV (directly killing),[1]; [9],0.4%
same,inhibition rate against RV (directly killing),[1]; [10],6.45%
same,inhibition rate against RV (directly killing),[1]; [11],5.89%
same,effect of directly killing RV,[1]; 65-90 μM,no obvious effect
same,effect of inhibiting RV biosynthesis,[2],has an effect of inhibiting RV biosynthesis
same,inhibition rate against RV (resisting biosynthesis),"[2]; 80 µM, without statistical difference from the ribavirin group",64.21%
same,inhibition of rotavirus biosynthesis,[2]; 70-85 μM,can effectively inhibit rotavirus biosynthesis
same,inhibition rate against RV (resisting biosynthesis),[2]; 70-85 μM,more than 50%
same,drug toxicity to the cells,[3]; 60-95 μM,no drug toxicity
same,cell viability versus the normal group,[3]; 65-90 μM,no significant difference
same,average survival rate,[3]; drug concentration 60-95 μM,more than 95%
same,VP6 expression level compared with the RV group,[4]; 75 μM,significantly decreased
same,VP6 expression level compared with the RV group,[4]; 80 μM,significantly decreased
same,VP6 expression level compared with the RV group,[4]; 85 μM,significantly decreased
same,concentration at which VP6 expression is inhibited most significantly,"[4]; among 75 μM, 80 μM and 85 μM",75 µM
same,inhibition rate against RV (resisting adsorption),[5]; [6],4.85%
same,inhibition rate against RV (resisting adsorption),[5]; [7],4.55%
same,inhibition rate against RV (resisting adsorption),[5]; [8],1.14%
same,inhibition rate against RV (resisting adsorption),[5]; [9],3.95%
same,inhibition rate against RV (resisting adsorption),[5]; [10],3.01%
same,inhibition rate against RV (resisting adsorption),[5]; [11],4.69%
same,effect of resisting RV adsorption,[5]; 65-90 μM,no obvious effect
same,maximum inhibition rate (resisting adsorption),[5]; within 65-90 μM,about 4.85%
